Assays:
[1] = RP-HPLC retention time used to determine hydrophobicity; assay type: physicochemical; settings: analytical RP-HPLC, C18 Sunfire column (4.6 mm × 150 mm, 3.5 μm); A = 0.05% TFA in water, B = acetonitrile; 10% to 100% B in 20 min then isocratic 100% B 10 min; 217 and 254 nm; used as measure of hydrophobicity
Experimental: The purity of the lipopeptides was checked by analytical RP-HPLC on an Agilent Infinity instrument equipped with a Diode Array and a C18 Sunfire column (4.6 mm × 150 mm, 3.5 μm). As mobile phase A:B mixtures were used, where A = 0.05% TFA in water and B = acetonitrile. The samples were analyzed at 217 and 254 nm in a gradient from 10% of B to 100% of B in 20 min followed by isocratic 100% of B in 10 min.
Retention times were used to determine the hydrophobicity ([Neubauer et al., 2020]). HRMS (EI+) was carried out in an Agilent 6,520 Accurate-Mass Q-TOF LC/MS spectrometer using water/acetonitrile mixtures. Results can be found in Supplementary Section S3, S4.

[2] = test system: Streptococcus pneumoniae R6; assay: Growth inhibition / lysis screening of planktonic cultures (OD550/600); assay type: cell-based; parameters: key: (+++) full inhibition; (++) partial inhibition; (+) growth retardation; -: (−) no effect; settings: S. pneumoniae R6, 50 and 100 μM compound added at early logarithmic phase (T1), OD550/600 followed 10 h, 37°C
Experimental: (§1) Planktonic cultures of selected pathogens (S. pneumoniae R6, S. pyogenes ^T, Staphylococcus aureus ^T, Escherichia coli DH10B, and Pseudomonas aeruginosa PAO1 strains) on early logarithmic-phase (T1) were assayed for their sensitivity to a broad range of DICAM compounds, as indicated in Table 1. Their bacteriostatic or lytic effect was first tested by measuring the variation of the OD550/600 as a function of time (10 h) when (50/100 μM) DICAMs were added, compared to untreated controls. The screening results, summarized in Table 1, evidenced that a potent antimicrobial activity may exist even when the negative charge of the peptide was higher than in the prototype compounds.
(§2) Susceptibility to DICAMs was first tested by growth-inhibition assays at 50 and 100 μM of compound. Briefly, working solutions at 5 mM or 10 mM DICAM in pure DMSO were prepared from DICAM stocks (40 mM in pure DMSO) and diluted with fresh culture medium to 5× the desired final concentration. Aliquots (50 µL) of these solutions were added to 200 µL of bacterium cultures grown to early exponential phase (OD550/600 c. a. 0.15–0.2 in sterile 96-well plates (Cultek, Spain). Incubation continued for 10 h at 37°C and turbidity (OD550/600) values were measured every 20 min to monitor growth and lysis, using a VersaMax microplate reader (Molecular Devices; United Kingdom). Next, the activity dependence on DICAM’s dose was examined by measuring the turbidity of treated and untreated cultures as a function of time. Also, the decay of bacterial viability (CFU/mL) at selected times of treatment was assessed by colony counting on LB-agar or TSA plates after overnight incubation at 37°C. By default, 10 μL of 10-fold serially diluted samples were plated, which set the lower detection limit at 10^2 CFU/mL (10^1 CFU/mL when 100 μL of the undiluted sample was seeded).

Escherichia coli DH10B [3] = assay: Resting-cell viability (CFU) with 0.5 mM EDTA; assay type: cell-based; settings: E. coli DH10B, 100 µM compound, 3 h incubation
Experimental: (§3) Addition of tested compounds to the culture medium had little or no effect on bacterial growth, even at a concentration of 100 μM (Table 1). Since inactivity could arise from the inability of DICAMs to cross the outer membrane, we next tested their effect on bacterial suspensions in the absence or the presence of 0.5 mM EDTA, an outer membrane permeating agent. A decrease of approximately 90% in bacterial viability was observed after 3 h treatment with DICAM 2 and DICAM 4, compared to controls in EDTA-containing buffer (Supplementary Figure S5). No variations were found with the other compounds tested (Table 1), showing that only DICAMs containing Ala/Asn- Pro -Glu tripeptides were able to access the cell membrane and kill these pathogens when the outer membrane permeability was enhanced.
(§4) For activity assays on resting cells, bacteria grown to exponential phase (OD600 ≈ 0.3) were centrifuged and washed with 20 mM Tris-HCl (pH 7.5), adjusting the final OD600 to ≈0.6 (≈10^8 CFU/mL) with the same buffer. If required, EDTA (0.5 mM final concentration) was next added and the bacterial suspension was dispensed (225 µL per well) in 96-well plates, and then treated with 100 µM DICAM (25 µL). Samples were incubated at 37°C for 3 h and turbidity measurements were taken at selected intervals, also measuring the decay in cell viability at the end of incubation. Controls with buffer (with and without 1% DMSO), 100 µM DICAM, or 0.5 mM EDTA were run in parallel.

[4] = test system: Pseudomonas aeruginosa PAO1; assay: Resting-cell viability (CFU) with 0.5 mM EDTA; assay type: cell-based; settings: P. aeruginosa PAO1, 100 µM compound, 3 h incubation
Experimental: as §3, §4

Streptococcus pyogenes T = assay: Growth inhibition screening of planktonic cultures (OD550/600); assay type: cell-based; parameters: key: (+++) full inhibition; (++) partial inhibition; (+) growth retardation; -: (−) no effect; settings: S. pyogenes T, 50 and 100 μM compound added at T1, OD550/600 followed 10 h, 37°C
Experimental: as §1, §2

[5] = test system: Pseudomonas aeruginosa PAO1; assay: as above; assay type: cell-based; parameters: key: (+++) full inhibition; (++) partial inhibition; (+) growth retardation; -: (−) no effect; settings: P. aeruginosa PAO1, 50 and 100 μM compound added at T1, OD550/600 followed 10 h, 37°C
Experimental: as §1, §2

Staphylococcus aureus T = assay: as above; assay type: cell-based; parameters: key: (+++) full inhibition; (++) partial inhibition; (+) growth retardation; -: (−) no effect; settings: S. aureus T, 50 and 100 μM compound added at T1, OD550/600 followed 10 h, 37°C
Experimental: as §1, §2

Escherichia coli DH10B [6] = assay: as above; assay type: cell-based; parameters: key: (+++) full inhibition; (++) partial inhibition; (+) growth retardation; -: (−) no effect; settings: E. coli DH10B, 50 and 100 μM compound added at T1, OD550/600 followed 10 h, 37°C
Experimental: as §1, §2

S. pneumoniae D39 = assay type: cell-based, Streptococcus pneumoniae
Excerpt: First, the substitution of the fatty amino chain of 18 carbon atoms of the reference compound DICAM 2 by either an OMe group (methylated tripeptide DICAM 5) or an amine with 12 carbon atoms (DICAM 9) abolished the activity against all three pathogens. However, the activity remained intact when the chain of the fatty amine of prototypes DICAMs 1 and 4 was two carbon atoms shorter (DICAM 10 and DICAM 12, respectively), based on S. pneumoniae and S. pyogenes results. […] Third, Glu and Ala were tolerated as C-terminal residues of the lipotripeptides. […] In addition, deletion of the C-terminal Glu (DICAM 13) eradicated the activity against S. pneumoniae and S. aureus. However, a delay and small inhibition of S. pyogenes ^T growth was still observed. Fourth, Glu (DICAMs 19 and 20) and Orn (DICAMs 21 and 22) were tolerated as N-terminal residues, with the impact of these modifications being pathogen-dependent. […] SAR studies continued by measuring the dose dependence of DICAM’s activity at T1 with all the compounds found to be active against S. pyogenes or S. aureus in the initial screening, and all but one compound in the case of S. pneumoniae. The OD values of bacterial cultures were monitored after DICAM addition, and the decrease in the number of viable bacteria was measured relative to controls (Figures 4–6; Supplementary Figure S1). As antibacterial efficacy may decline with the bacterium dose in the inoculum ([Belley et al., 2009]; [Udekwu et al., 2009]; [Luca et al., 2013]), the assays were performed using the bacterial concentrations necessary for the fluorescence experiments in Section 2.3 (10^7–10^8 CFU/mL). At these high bacterial densities, MICs were determined as the DICAM concentration at which bacteria neither grow nor are killed (the stationary concentration (SC)), following [Udekwu et al., 2009]. By fitting the logarithmic plot of cell viability decrease vs. the DICAM dose to a Hill function (see Section 5.2.3.1) we were able to determine the maximum variation in viability (Δlogmax = ∆log f - ∆log 0, where ∆log f and ∆log 0 are the upper and lower limits of Δlog) in the assay conditions, the SC concentration (Δlog = 0), the dose required for half-variation in Δlogmax (K 1/2), and the cooperativity of the antimicrobial effect (N H).
as §2
As antibacterial efficacy may decline with the bacterium dose in the inoculum ([Belley et al., 2009]; [Udekwu et al., 2009]; [Luca et al., 2013]), activity assays were performed using the bacterial concentrations required for the fluorescence experiments in Section 2.3 (10^7–10^8 CFU/mL). At such bacterial densities, MICs were determined as the DICAM concentration at which bacteria neither grow nor are killed under assay conditions (the stationary concentration (SC)), as indicated in Section 2.2. […]

[7] = Calcein release from LUVs; settings: 10 μM DICAM, 25°C, vesicle buffer pH 7.4, calcein release
Experimental: LUVs were prepared for calceine liberation assays as described ([Chongsiriwatana and Barron, 2009]). Lipid composition (mole %) of LUVs was: POPG (100), POPG:CL (80:20), POPG:CL:DOPE ([…]), and POPG:CL:GlcDAG (75:5:20). Briefly, the nitrogen-dried lipid mixture was dissolved at 1.25 mM with 100 mM calceine in vesicle buffer (10 mM Tris, 140 mM NaCl, 0.5 mM EDTA, pH 7.4) followed by five thaw-freeze cycles. Calceine-entrapped LUVs were prepared by extrusion through 100 nm polycarbonate membranes (Avanti Polar Lipids). Non-entrapped calceine was separated from LUVs by gel filtration on a Sephacryl® S200-HR column (Sigma). LUVs permeabilization was monitored at 25°C by fluorescence emission at 550 nm (λex = 480 nm) as a function of time in a Fluoromax-4 spectrofluorometer (Horiba, France) using agitation. Signal stabilization of samples (1,500 µL vesicle buffer plus 45 µL LUVs) was recorded for 5 min before 10 µM final DICAM addition, and calcein release was monitored for a maximum of 20 min. After incubation, samples were solubilized in Triton X-100 (0.025%) and the fluorescence signal recorded thereafter was used to normalize the entire data set. Solubilization of DICAM-untreated LUVs in Triton X-100 was used as a positive control. No perturbation was detected in controls containing DMSO.

Substance	Retention time [1] [min]	Growth halt or lysis (50/100 μM), Spn [2]	CFU's decay in the presence of 0.5 mM EDTA, Ec (data in parenthesis) (Escherichia coli DH10B [3])	CFU's decay in the presence of 0.5 mM EDTA, Pa (data in parenthesis) [4]	Growth halt or lysis (50/100 μM), Spy T (Streptococcus pyogenes T)	Growth halt or lysis (50/100 μM), Pa [5]	Growth halt or lysis (50/100 μM), Sa T (Staphylococcus aureus T)	Growth halt or lysis (50/100 μM), Ec (Escherichia coli DH10B [6])	Reduction of the number of viable cells at saturating doses (S. pneumoniae D39; S. pneumoniae D39, within 60 min) [log-units]	Reduction of the number of viable cells at 3 × SC, S. pneumoniae (S. pneumoniae D39; after 1-h incubation at 3 × SC values)	Permeation of DOPE:POPG:CL (80:15:5) LUVs, result in words [7]
Asn- Ala -Glu-NH-C18H37 · HCl [DICAM 17]	18.63	-	(−) ((−) ≤ 0.3 log-units)	(−) ((−) ≤ 0.3 log-units)	-	-	-	-			
Ala- Pro -Glu-NH-C16H33 · HCl [DICAM 12]	17.57	+++							≥ 4.6	99.2%–99.8	
Asn- Pro -Phe-NH-C18H37 · HCl [DICAM 7]	22.21	-			-						particularly effective
Pro -Glu-NH-C18H37 · HCl [DICAM 18]	19.54	-				-		-			
Cbz-Asn- Pro -Glu(O^tBu)-NH-C18H37 [DICAM 8]		-									
Ala- Pro -Trp-NH-C18H37 · HCl [DICAM 16]	21.04	-	(−) ((−) ≤ 0.3 log-units)	(−) ((−) ≤ 0.3 log-units)	-	-	-	-			
Ala- Pro -Glu-NH-C12H25 · HCl [DICAM 11]	15.29	-									
Asn- Pro -Glu-OMe · HCl [DICAM 5]	5.15	-									
Cbz-Ala- Pro -Trp-NH-C18H37 [DICAM 15]	23.18	-	(−) ((−) ≤ 0.3 log-units)	(−) ((−) ≤ 0.3 log-units)		-		-			
Cbz-Asn- Pro -Glu-NH-C12H25 [DICAM 9]	15.80	-									

Reference: publication PMC11329928, “Design, synthesis and structure-activity relationship (SAR) studies of an unusual class of non-cationic fatty amine-tripeptide conjugates as novel synthetic antimicrobial agents” (Frontiers in Pharmacology, 2024)
